Data as given in publication PMC10026625 (RSC Advances, 2023).

Tested on: SARS-CoV-2 ancestral Wuhan strain (OMC-510) / VeroE6/TMPRSS2 cells
Details: plaque reduction assay

Compound: CC[C@H](C)[C@H](NC(C)=O)C(=O)N[C@@H](CO)C(=O)NCC(=O)N[C@H](C(=O)N[C@@H](CC(N)=O)C(=O)N[C@@H](C)C(=O)N[C@@H](CO)C(=O)N[C@H](C(=O)N[C@H](C(=O)N[C@@H](CC(N)=O)C(=O)N[C@H](C(=O)N[C@@H](CCC(N)=O)C(=O)N[C@@H](CCC(=O)O)C(=O)N[C@@H](CCC(=O)O)C(=O)N[C@H](C(=O)N[C@@H](CCCCN)C(=O)N[C@@H](CCCNC(=N)N)C(=O)N[C@@H](CC(C)C)C(=O)N[C@@H](CC(N)=O)C(=O)N[C@@H](CCC(=O)O)C(=O)N[C@H](C(=O)N[C@@H](C)C(=O)N[C@@H](CCCCN)C(=O)N[C@@H](CCCCN)C(=O)N[C@@H](CC(C)C)C(=O)N[C@@H](CC(N)=O)C(=O)N[C@@H](CCC(=O)O)C(=O)N[C@@H](CO)C(=O)N[C@@H](CC(C)C)C(=O)N[C@H](C(=O)N[C@@H](CC(=O)O)C(=O)N[C@@H](CC(C)C)C(=O)N[C@@H](CCC(N)=O)C(=O)N[C@@H](CCC(=O)O)C(N)=O)[C@@H](C)CC)C(C)C)[C@@H](C)CC)[C@@H](C)CC)C(C)C)C(C)C)[C@@H](C)CC [Peptide 3a]
- times higher antiviral activity than peptide 1a: ~4 times
- times higher antiviral activity than peptide 2a: approximately 10 times
